Test results: patent US12448383B2, “Compounds and methods for treatment of viral infections” (priority 2022, dated 2025)
Read-outs that look alike come from different tables or passages of the source.

What was measured:
[1] = Thermodynamic solubility in pH7 buffered solution; details: 50 mM phosphate buffer pH7, 150 mM NaCl, ambient temperature, 24 hours
Protocol: Solubility was determined at ambient temperature in a 50 mM phosphate buffered pH7 solution with 150 mM NaCl (to achieve isotonicity). Solids were added to the buffered solution in 1.5-mL Eppendorf tubes, vortexed for 1 minute, then agitated for 24 hours in an Eppendorf ThermoMixer C. […] Supernatants were diluted to a volume of 1 mL with 30:70 v/v acetonitrile:water. All diluted supernatants were analyzed by UPLC using a Waters Acquity UPLC with a PDA UV detector.

[2] = GI S9 stability - no PMSF; format: in vitro ADME; set-up: GIS9-HUMAN-NoPMSF T1/2: unit: min; details: human intestinal S9, PMSF-free; for half-life at 2 µM: pH 7.4, read-out: GIS9-HUMAN-NoPMSF T1/2
Summary of the method: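 Stability was assessed by Q-Exactive LC-MS peak area ratios against internal standard, tracking loss of parent and appearance of nucleoside metabolite Reference Compound A. Incubations used 2 μM compound in 1 mg/mL intestinal S9 without PMSF (PBS, pH 7.4), with six samples taken over 120 min.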

[3] = system: Caco-2 cells (clone C2BBe1); assay: CACO-2 permeability; format: in vitro ADME; set-up: unit not given here; details: for DM Caco2 A to B: apical to basolateral, donor pH 6.5, receiver pH 7.4; for DM Caco2 B to A: basolateral to apical
Summary of the method: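 A-to-B and B-to-A flux measured by LC-MS/MS from receiver samples taken at 1 and 2 h, with donor sampled at 0 and 2 h and recovery checked. Buffers: pH 6.5 HBSS with 200 μM BNPP on the donor side, pH 7.4 with BSA on the receiver side. Monolayers were 21-day cultures, TEER-verified, in duplicate wells.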

[4] = CC50 MT4 cytotoxicity (Cell-Titer Glo); format: cell-based; details: human
Summary of the method: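 CC50 values are the concentrations cutting viability by 50%, fitted by non-linear regression against untreated (100%) and 2 μM puromycin (0%) controls. Cell-Titer Glo luminescence measured after 4-5 days at 37° C exposure of uninfected MT-4 and HEp-2 cells to 3-fold dilutions spanning 15 nM to 100,000 nM.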

[5] = Stability in pH7 buffered solution; format: physicochemical; details: pH7 phosphate buffer, 40° C., Table N2
Protocol: (§1) Example N: Stability in p112 and p117 Buffered Solutions
(§2) The aqueous stability of compounds over a time of 24 hours at 40° C. was assessed. Stability was determined in 50 mM phosphate buffered solutions at both pH2 and pH7, with 150 mM NaCl (to achieve isotonicity). 3-5 mg of solid compounds were added to 7 mL scintillation vials. Acetonitrile was added to each vial to produce a 1 mg/mL stock solution. Stock solutions were diluted to 50 μg/mL in either pH2 or pH7 phosphate buffer, to a volume of 1 mL. For each compound and pH condition, 50 μg/mL samples were prepped in duplicate. One sample was placed on the UPLC tray at 40° C. for analysis, and the second sample was placed in a 40° C. oven for storage. Sample preps for each compound were offset by 40 minutes to account for run time on UPLC.
(§3) Concentration timepoints were measured at 0, 3, 6, 9, and 12 hrs. After 24 hrs, samples in the 40° C. oven were removed and analyzed by UPLC.
(§4) In FIG. 2, % AN stands for % area normalized. That is, % AN is the area of the compound peak relative to the sum of areas of all the peaks in the UPLC chromatogram. For example, if there were two peaks, compound peak with an area of 9 and another peak with an area of 1, then the % AN of the compound peak would be 90%.

[6] = Stability in pH2 buffered solution; format: physicochemical; details: pH2 phosphate buffer, 40° C., 24 h; Table N2
Protocol: as §1, §2, §3, §4

[7] = system: Respiratory syncytial virus recombinant with luciferase (RSV-Luc5) in Normal Human Bronchial Epithelial (NHBE) cells; assay: microbe, parasite or virus in culture; format: cell-based
Plasma stability = format: in vitro ADME; set-up: unit not given here; details: 37° C., 2 μM substrate
Summary of the method: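 LC-MS (Q-Exactive, 5 ppm tolerance, 0.1% formic acid water/acetonitrile gradient) quantified compound in quenched aliquots. Aliquots were taken at 0.05, 0.5, 1, 2, 3 and 4 hr and quenched with internal-standard solution, and supernatants were diluted with water after centrifugation.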

[8] = system: SARS Coronavirus 2 recombinant with NanoLuc (SARS-CoV2-NLuc) in A549-hACE2 cells; assay: organism not typed; format: cell-based
[9] = system: Respiratory syncytial virus recombinant with luciferase (RSV-Luc5) in HEp-2 cells; assay: microbe, parasite or virus in culture; format: cell-based; details: human respiratory syncytial virus
[10] = HEp-2, 72 h, read-out: RSV Hep2 EC50
[11] = A549; read-out: EC50 SARS CoV2 NanoLuc A549 384
[12] = read-out: EC50 RSVFluc-NHBE 384 V2

Row | SMILES | Sol pH 7 [1] | GIS9-HUMAN-NoPMSF T1/2 [2] | DM Caco2 A to B [3] | DM Caco2 B to A [3] | CC50 [4] [µM] | pH 7 Stability 24 h % AN [5] [% AN] | pH 2 Stability 24 h % AN [6] [% AN] | EC50 ([7]; 72 h, read-out: RSV NHBE EC50) [µM] | STA Human Plasma 37 (Plasma stability) | half-life at 2 µM [2] [min] | EC50 ([8]; 48 h; read-out: SARS-CoV2 EC50) [µM] | EC50 [9, 10] [µM] | EC50 [8, 11] [µM] | logD (physchem) | EC50 [7, 12] [µM] | EC50 ([9]; HEp-2, read-out: EC50 RSVFluc-Hep2 384 V2) [µM] | EC50 ([8]; 48 h, read-out: SARS-CoV2 EC50) [µM] | CC50 ([4]; uninfected MT-4 cells, 4-5 days, read-out: MT4 CC50) [µM]
1 | COCC(C)(C)OC(=O)OC[C@H]1O[C@@](C#N)(c2ccc3c(N)ncnn23)[C@H](O)[C@@H]1O [Compound 96, ((2R,3S,4R,5R)-5-(4-aminopyrrolo[2,1-f][1,2,4]triazin-7-yl)-5-cyano-3,4-dihydroxytetrahydrofuran-2-yl)methyl (1-methoxy-2-methylpropan-2-yl) carbonate] | 1.25 | 789 | 0.09 | 4.05 | > 50 | 95 | 96 | > 50 | 1584 |  |  |  |  |  |  |  |  | 
2 | CC(C)(OC(=O)OC[C@H]1O[C@@](C#N)(c2ccc3c(N)ncnn23)[C@H](O)[C@@H]1O)C(F)F [Compound 76, ((2R,3S,4R,5R)-5-(4-aminopyrrolo[2,1-f][1,2,4]triazin-7-yl)-5-cyano-3,4-dihydroxytetrahydrofuran-2-yl)methyl (1,1-difluoro-2-methylpropan-2-yl) carbonate] | 0.37 |  | 2.13 | 12.17 | > 50 | 91 | 92 | 3.4 | 1584 | 38.9 | > 50 |  |  |  |  |  |  | 
3 | CCOC(=O)[C@H](C)OC(=O)OC[C@H]1O[C@@](C#N)(c2ccc3c(N)ncnn23)[C@H](O)[C@@H]1O [Compound 97, ethyl (S)-2-(((((2R,3S,4R,5R)-5-(4-aminopyrrolo[2,1-f][1,2,4]triazin-7-yl)-5-cyano-3,4-dihydroxytetrahydrofuran-2-yl)methoxy)carbonyl)oxy)propanoate] | 6.02 |  | 0.04 | 2.15 |  | 85 | 98 | 6.16 | 6.669 | 3.65 |  |  |  |  |  |  |  | 
4 | CC(C)OC(=O)OC[C@H]1O[C@@](C#N)(c2ccc3c(N)ncnn23)[C@H](OC(=O)OC(C)C)[C@@H]1OC(=O)OC(C)C [Compound 81, (2R,3R,4R,5R)-2-(4-aminopyrrolo[2,1-f][1,2,4]triazin-7-yl)-2-cyano-5-(((isopropoxycarbonyl)oxy)methyl)tetrahydrofuran-3,4-diyl diisopropyl bis(carbonate)] | 0.06 |  | 7.77 | 14.74 | 48.3 | 98 | 100 | 0.996 | 195.87 | 0.688 | 24.4 |  |  |  |  |  |  | 
5 | CC(C)(OC(=O)OC[C@H]1O[C@@](C#N)(c2ccc3c(N)ncnn23)[C@H](O)[C@@H]1O)C(F)(F)F [Compound 67, ((2R,3S,4R,5R)-5-(4-aminopyrrolo[2,1-f][1,2,4]triazin-7-yl)-5-cyano-3,4-dihydroxytetrahydrofuran-2-yl)methyl (1,1,1-trifluoro-2-methylpropan-2-yl) carbonate] |  |  | 0.99 | 9.76 | > 50 | 91 | 95 | 1.52 | 1177.1 | 10.5 | 12.8 |  |  |  |  |  |  | 
6 | CC(C)OC(=O)OC[C@H]1O[C@@](C#N)(c2ccc3c(N)ncnn23)[C@@H]2OC(=O)O[C@@H]21 [Compound 66, ((3aR,4R,6R,6aR)-6-(4-aminopyrrolo[2,1-f][1,2,4]triazin-7-yl)-6-cyano-2-oxotetrahydrofuro[3,4-d][1,3]dioxol-4-yl)methyl isopropyl carbonate] |  |  |  |  | > 50 | 0 | 2 | 0.499 | 24.2 | 0.491 | 3.21 | 0.847 |  |  |  |  |  | 
7 | CCCC(=O)Nc1ncnn2c([C@]3(C#N)O[C@H](COC(=O)OCC(C)C)[C@@H](O)[C@H]3O)ccc12 [Compound 21, [(2R,3S,4R,5R)-5-[4-(butanoylamino)pyrrolo[2,1-f][1,2,4]triazin-7-yl]-5-cyano-3,4-dihydroxy-tetrahydrofuran-2-yl]methyl isobutyl carbonate] |  |  | 1.36 | 8.33 | > 50 | 92 | 0 | 2.25 |  |  | 12.9 | 2.38 |  |  |  |  |  | 
8 | CC(C)OC(=O)[C@H]([C@@H](C)OC(=O)OC[C@H]1O[C@@](C#N)(c2ccc3c(N)ncnn23)[C@H](O)[C@@H]1O)N(C)C [Compound 145, isopropyl (2S,3R)-3-[[(2R,3S,4R,5R)-5-(4-aminopyrrolo[2,1-f][1,2,4]triazin-7-yl)-5-cyano-3,4-dihydroxy-tetrahydrofuran-2-yl]methoxycarbonyloxy]-2-(dimethylamino)butanoate] |  |  | 0.2 | 8.475 | > 50 | 0 | 93 |  | 299.49 | 32.8 |  |  | 3.48 | 1.85 | 3.15 |  |  | 
9 | CC1=CCC(C(C)(C)OC(=O)OC[C@H]2O[C@@](C#N)(c3ccc4c(N)ncnn34)[C@H](O)[C@@H]2O)CC1 (stereo partly drawn) [Compound 155, ((2R,3S,4R,5R)-5-(4-aminopyrrolo[2,1-f][1,2,4]triazin-7-yl)-5-cyano-3,4-dihydroxytetrahydrofuran-2-yl)methyl (2-(4-methylcyclohex-3-en-1-yl)propan-2-yl) carbonate] |  |  | 3.06 | 10.35 | > 50 |  |  |  | 1584 | 77.5 |  |  | 3.19 | 2.8 | 1.12 | 1.57 |  | 
10 | CCC(C)(C)OC(=O)OC[C@H]1O[C@@](C#N)(c2ccc3c(N)ncnn23)[C@H](OC(=O)OC(C)(C)CC)[C@@H]1OC(=O)OC(C)(C)CC [Compound 60, (2R,3R,4R,5R)-2-(4-aminopyrrolo[2,1-f][1,2,4]triazin-7-yl)-2-cyano-5-((((tert-pentyloxy)carbonyl)oxy)methyl)tetrahydrofuran-3,4-diyl di-tert-pentyl bis(carbonate)] |  |  | 0.12 | 0.32 |  | 0 | 0 | 1.58 | 1584 | 44.9 |  |  |  |  |  |  | 2.69 | 32.9
